{"source": "patent US4883815A", "about": "“Hydrocinnamic acid derivatives” (Hoffmann-La Roche Inc., priority 1987, dated 1989)", "data": [{"assay": "acute toxicity, single oral administration", "conditions": "mouse, in vivo, po", "from_the_text": "(§1) Moreover, the Table contains data for the acute toxicity (LD50 in mg/kg in the case of single oral administration to mice).", "units": {"LD50": "mg/kg"}, "values": [{"smiles": "CC(=O)NCCCC(=O)c1ccc(Cl)cc1CCC(N)=O", "note": "[Example 19, 2-(4-acetamidobutyryl)-5-chlorohydrocinnamide]", "LD50": "> 4000"}, {"smiles": "CCCCCCCOC(=O)CCc1cc(Cl)ccc1C(=O)CCCNC(C)=O", "note": "[H H Cl H H O(CH2)6CH3 CH3 H H Oxo]", "LD50": "> 5000"}]}, {"assay": "acute toxicity, single oral administration", "conditions": "mouse, in vivo; acute toxicity, single oral administration to mice", "from_the_text": "as §1", "units": {"LD50": "mg/kg"}, "values": [{"smiles": "CCOC(=O)CCc1cc(Cl)ccc1C(=O)CCCNC(=O)CCCNC(C)=O", "note": "[Example 8, ethyl 2-[4-(4-acetamidobutyramido)butyryl]-5-chlorohydrocinnamate]", "LD50": "> 5000"}, {"smiles": "CCOC(=O)CNC(=O)CCc1cc(Cl)ccc1C(=O)CCCNC(C)=O", "note": "[Example 30, ethyl N-[2-(4-acetamidobutyryl)-5-chlorohydrocinnamoyl]-glycinate]", "LD50": "> 5000"}, {"smiles": "CCOC(=O)CCc1cc(Cl)ccc1C(=O)CCCNC(C)=O", "note": "[Example 2, ethyl 2-(4-acetamidobutyryl)-5-chloro-hydrocinnamate]", "LD50": "> 5000"}, {"smiles": "CC(=O)NCCCC(=O)c1ccc(Cl)cc1CCC(=O)OC(C)C", "note": "[Example 4, isopropyl 2-(4-acetamidobutyryl)-5-chlorohydrocinnamate]", "LD50": "> 4000"}, {"smiles": "CCOC(=O)CC[C@H](NC(=O)CCc1cc(Cl)ccc1C(=O)CCCNC(C)=O)C(=O)OCC", "note": "[Example 29, diethyl N-[2-(4-acetamidobutyryl)-5-chlorohydrocinnamoyl]-L-glutamate]", "LD50": "> 5000"}, {"smiles": "CCCOC(=O)CCc1cc(Cl)ccc1C(=O)CCCNC(C)=O", "note": "[Example 3, propyl 2-(4-acetamidobutyryl)-5-chlorohydrocinnamate]", "LD50": "> 5000"}]}]}
